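Grown in 96-well plates, cells were treated for 48 hours with each compound at five concentrations. Insufficient inhibition: endpoint recorded as highest concentration tested. GI50 is the concentration that inhibits growth by half. TGI denotes the concentration required for complete inhibition of growth.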
Experiments:
Assay in all cases: NCI anticancer screen, dose series, 48 h
[1] = tested on: ACHN renal
[2] = tested on: HS 578T breast
[3] = tested on: MOLT-4 leukemia
[4] = tested on: HL-60(TB) leukemia
[5] = tested on: CCRF-CEM leukemia
[6] = tested on: OVCAR-3 ovarian
[7] = tested on: HCC-2998 colon
[8] = tested on: NCI-H460 lung
[9] = tested on: RXF 393 renal
[10] = tested on: COLO 205 colon
[11] = tested on: SK-MEL-2 melanoma
[12] = tested on: TK-10 renal
[13] = tested on: CAKI-1 renal
[14] = tested on: EKVX NSCLC
[15] = tested on: SW-620 colon
[16] = tested on: SR leukemia
[17] = tested on: BT-549 breast
[18] = tested on: U251 CNS
[19] = tested on: UO-31 renal
[20] = tested on: SF-539 CNS
[21] = tested on: 786-0 renal
[22] = tested on: HCT-116 colon
[23] = tested on: IGROV1 ovarian
[24] = tested on: HOP-62 NSCLC
[25] = tested on: SF-295 CNS
[26] = tested on: NCI/ADR-RES ovarian
[27] = tested on: DU-145 prostate
[28] = tested on: HOP-92 NSCLC
[29] = tested on: OVCAR-5 ovarian
[30] = tested on: HCT-15 colon
[31] = tested on: SK-OV-3 ovarian
[32] = tested on: MDA-MB-231 breast
[33] = tested on: SN12C renal
[34] = tested on: NCI-H23 lung
[35] = tested on: UACC-62 melanoma
[36] = tested on: HT29 colon
[37] = tested on: K-562 leukemia
[38] = tested on: UACC-257 melanoma
[39] = tested on: MALME-3M melanoma
[40] = tested on: OVCAR-4 ovarian
[41] = tested on: SNB-19 CNS
[42] = tested on: SK-MEL-28 melanoma
[43] = tested on: A549 NSCLC
[44] = tested on: LOX IMVI melanoma
[45] = tested on: SK-MEL-5 melanoma
[46] = tested on: SF-268 CNS
[47] = tested on: MCF7 breast
[48] = tested on: NCI-H522 lung
[49] = tested on: SNB-75 CNS
[50] = tested on: M14 melanoma
[51] = tested on: OVCAR-8 ovarian
[52] = tested on: A498 renal
[53] = tested on: RPMI-8226 leukemia
[54] = tested on: PC-3 prostate
[55] = tested on: NCI-H226 lung
[56] = tested on: MDA-MB-435

## CC1OC(O[C@@H]2C(O)C(CO)OC(O[C@H]3COC(O[C@H]4CC[C@]5(C)[C@H]6CC[C@]78OC[C@@]9(CC[C@](C)(C=O)C[C@H]97)[C@H](O)C[C@@]8(C)[C@]6(C)CC[C@H]5C4(C)C)[C@@H](OC4OC(CO)[C@@H](O)[C@@H](O)[C@@H]4O)[C@@H]3O)[C@H]2OC2OC[C@@H](O)[C@@H](O)[C@@H]2O)[C@@H](O)[C@@H](O)[C@H]1O (some centres not stated)
[1]
  GI50: 1500 nM
  TGI: 2920 nM
[2]
  GI50: 1920 nM
  TGI: 4140 nM
[3]
  GI50: 1130 nM
  TGI: 3980 nM
[4]
  GI50: 598 nM
  TGI: 2190 nM
[5]
  GI50: 1210 nM
  TGI: 4340 nM
[6]
  GI50: 1980 nM
  TGI: 3820 nM
[7]
  GI50: 1950 nM
  TGI: 3520 nM
[8]
  GI50: 1880 nM
  TGI: 3830 nM
[9]
  GI50: 811 nM
  TGI: 2400 nM
[10]
  GI50: 1620 nM
  TGI: 3160 nM
[11]
  GI50: 2330 nM
  TGI: 4240 nM
[12]
  GI50: 2790 nM
  TGI: 4510 nM
[13]
  GI50: 1890 nM
  TGI: 3480 nM
[14]
  GI50: 1930 nM
  TGI: 3840 nM
[15]
  GI50: 1840 nM
  TGI: 3700 nM
[16]
  GI50: 357 nM
  TGI: 1240 nM
[17]
  GI50: 1770 nM
  TGI: 3500 nM
[18]
  GI50: 2120 nM
  TGI: 3870 nM
[19]
  GI50: 1350 nM
  TGI: 2820 nM
[20]
  GI50: 1610 nM
  TGI: 3100 nM
[21]
  GI50: 2140 nM
  TGI: 3970 nM
[22]
  GI50: 1480 nM
  TGI: 2980 nM
[23]
  GI50: 1820 nM
  TGI: 3930 nM
[24]
  GI50: 1760 nM
  TGI: 3470 nM
[25]
  GI50: 1760 nM
  TGI: 3310 nM
[26]
  GI50: 1970 nM
  TGI: 4150 nM
[27]
  GI50: 1950 nM
  TGI: 3710 nM
[28]
  GI50: 982 nM
  TGI: 2620 nM
[29]
  GI50: 1860 nM
  TGI: 3420 nM
[30]
  GI50: 2230 nM
  TGI: 5010 nM
[31]
  GI50: 1920 nM
  TGI: 3490 nM
[32]
  GI50: 1760 nM
  TGI: 3510 nM
[33]
  GI50: 1700 nM
  TGI: 3510 nM
[34]
  GI50: 1890 nM
  TGI: 3740 nM
[35]
  GI50: 1970 nM
  TGI: 3820 nM
[36]
  GI50: 1990 nM
  TGI: 4020 nM
[37]
  GI50: 2200 nM
  TGI: 5680 nM
[38]
  GI50: 2030 nM
  TGI: 3770 nM
[39]
  GI50: 1740 nM
  TGI: 3510 nM
[40]
  GI50: 1840 nM
  TGI: 3930 nM
[41]
  GI50: 1810 nM
  TGI: 3710 nM
[42]
  GI50: 1690 nM
  TGI: 3290 nM
[43]
  GI50: 2110 nM
  TGI: 4040 nM
[44]
  GI50: 1740 nM
  TGI: 3390 nM
[45]
  GI50: 2380 nM
  TGI: 5810 nM
[46]
  GI50: 1910 nM
  TGI: 3910 nM
[47]
  GI50: 1980 nM
  TGI: 4110 nM
[48]
  GI50: 1970 nM
  TGI: 3750 nM
[49]
  GI50: 1700 nM
  TGI: 3250 nM
[50]
  GI50: 1710 nM
  TGI: 3400 nM
[51]
  GI50: 2100 nM
  TGI: 4280 nM
[52]
  GI50: 2260 nM
  TGI: 3980 nM
[53]
  GI50: 1730 nM
  TGI: 4280 nM
[54]
  GI50: 1950 nM
  TGI: 3640 nM
[55]
  GI50: 1890 nM
  TGI: 3980 nM
[56]
  GI50: 1850 nM
  TGI: 3570 nM
